PubChem BioAssay (NCI)
Values joined by “and” are separate entries in the source; they are usually repeats but may differ in a detail not shown here. Equal entries are not always repeated.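 Five concentrations, 48 hours, 96-well plates. GI50: concentration for 50% inhibition of growth. TGI: concentration producing complete growth inhibition.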

How the values were obtained:
Assay in all cases: inhibition of tumour cell growth, NCI panel, 48 h
[1] = test system: HCT-116 colon
[2] = test system: NCI-H522 lung
[3] = test system: OVCAR-5 ovarian
[4] = test system: UO-31 renal
[5] = test system: M14 melanoma
[6] = test system: CCRF-CEM leukemia
[7] = test system: SR leukemia
[8] = test system: KM12 colon
[9] = test system: OVCAR-3 ovarian
[10] = test system: TK-10 renal

SMILES | GI50 [1] | TGI [1] | GI50 [2] | TGI [2] | GI50 [3] | TGI [3] | GI50 [4] | TGI [4] | GI50 [5] | TGI [5] | GI50 [6] | TGI [6] | GI50 [7] | TGI [7] | GI50 [8] | TGI [8] | GI50 [9] | TGI [9] | GI50 [10] | TGI [10]
COC(=O)C1=C(O)C(C(=O)OC)[C@@]2(O)[C@@H](C(=O)OC)C(c3ccccc3C(F)(F)F)C[C@@H]1[C@@H]2C(=O)OC (stereo partly drawn) | 6.34 µM | 18.8 µM | 16.8 µM | 33.2 µM | 17.4 µM | 33.3 µM | 13 µM | 26.5 µM | 13.9 µM | 47.4 µM | 2.13 µM | 11.2 µM | 2.82 µM | 62.4 µM | 16.9 µM | 32.8 µM | 1.69 µM | 4.14 µM | 12.1 µM | 25.5 µM
OCCOCn1nc(-c2ccccc2)nc1-c1cnccn1 |  | > 100 µM |  | > 100 µM |  | > 100 µM |  | > 100 µM |  | > 100 µM |  | > 100 µM |  | > 100 µM |  | > 100 µM |  | > 100 µM |  | > 100 µM
O=C(O)/C=C/C(=O)Nc1cccc2c1-c1ccccc1C2=O |  | > 100 µM |  | 26.3 µM |  | > 100 µM |  | > 100 µM |  | > 100 µM |  | > 28.3 µM |  | > 57.8 µM |  | > 100 µM |  | 5.78 µM |  | > 29.7 µM
CN1CCN(c2nc(NCCNc3ccnc4cc(Cl)ccc34)c3ccccc3n2)CC1 | 0.448 µM | 7.62 µM | 1.64 µM | 3.8 µM | 3.35 µM | 13.3 µM | 1.55 µM | 3.53 µM | 1.83 µM | 3.59 µM | 0.527 µM | 4.84 µM | 1.3 µM | 3.67 µM | 2.43 µM | 12.1 µM | 2.21 µM | 7.44 µM | 2.72 µM | 7.93 µM
N=C(N)c1ccc(-c2ccc(-c3ccco3)o2)cc1 | 3.04 µM | 10.3 µM | 3.73 µM | 14.6 µM | 4.98 µM | 18.8 µM | 3.17 µM | 16.3 µM | 1.9 µM | 3.77 µM | 3.11 µM | 15.2 µM | 3.17 µM | 10.7 µM | 3.16 µM | 10.4 µM | 9.77 µM | 22.1 µM | 4.33 µM | 15.6 µM
O=c1cc(N2CCOCC2)oc2c(-c3ccccc3)cccc12 | 9.87 µM | > 100 µM and 46.1 µM | 4.96 µM | 23.2 µM and 19.3 µM | 5.17 µM | > 100 µM and 63.8 µM | 1.39 µM |  | 5.38 µM | > 38.5 µM and 56 µM | 8.59 µM | > 100 µM |  | > 60 µM and 46.6 µM | 10.6 µM | 44.9 µM and 28.8 µM | 4.48 µM | 40.3 µM and 43 µM | 4.39 µM | 40.3 µM and > 100 µM
O=C(O)CSc1ccn(Cc2ccccc2)c1 |  | > 100 µM |  | > 100 µM |  | > 100 µM |  | > 100 µM |  | > 100 µM |  | > 100 µM |  | > 100 µM |  | > 100 µM |  | > 100 µM |  | > 100 µM
O=C(O)C(=O)/C=C\c1ccc(Cl)cc1 |  | > 100 µM |  | > 100 µM |  | > 100 µM |  | > 100 µM |  | > 100 µM |  | > 100 µM |  | > 100 µM |  | > 100 µM |  | > 100 µM |  | > 100 µM
COc1ccc(CNCCN2C(=O)c3ccc4c5c(ccc(c35)C2=O)C(=O)N(CCNCc2ccc(OC)cc2)C4=O)cc1 | 0.147 µM | 0.688 µM | 0.413 µM | 1.92 µM | 0.428 µM | 1.89 µM | 0.501 µM | 1.98 µM | 0.169 µM | 0.348 µM | 0.227 µM | 3.29 µM | 0.22 µM | 0.984 µM | 0.2 µM | 0.623 µM | 0.159 µM | 0.573 µM | 0.201 µM | 0.754 µM
CCCCCCCC(=O)SCC/C=C/[C@@H]1CC(=O)NCc2cccc(n2)CN(Cc2ccc(Cl)cc2)CC(=O)N[C@@H](C(C)C)C(=O)O1 | 4.23 µM | 15.6 µM | 6.82 µM | 54.1 µM | 9.98 µM | > 100 µM | 6.27 µM | 48.9 µM | 9.1 µM | > 100 µM | 4.56 µM | > 100 µM | 3.64 µM | > 100 µM | 9.4 µM | 65.1 µM | 13.1 µM | 49.4 µM | 2.81 µM | 23.6 µM
